[ ]: non-standard residue; d: D form.
Experiments:
Format in all cases: binding
α4β1 = target: T1, α4β1 (Homo sapiens, UniProt P05556+P13612); assay: STM break-junction, effect of electrode modification (ligand) on frequency of large current events
T1 construct: purchased R&D Systems (Bio-Techne)

αvβ3 = target: T2, αvβ3 (Homo sapiens, UniProt P05106+P06756); assay: as above
T2 construct: the αVβ3 extracelluar domain of human integrin; purchased YO Proteins AB
Source text: The molecular specificity of the αVβ3-RGD binding was investigated by comparing the selectivity of RGD functionalized surfaces with the selectivity of surfaces functionalized with cyclic RGE, a cyclic peptide of the same charge (RGD, pI=6.09; RGE pI=6.18) and differing by only one carbon atom. The effects of functionalizing only the probe or substrate were also investigated. The results of these experiments are summarized in Table 2 (no events were observed without functionalization). […] It can be concluded that one chemical contact is required for the high conductance to be observed, and that the specificity and frequency of events increases with the chemical specificity of the contact. In addition, specific binding results in larger current peaks at larger retraction distances than obtained with less-specific binding.
RGE is a cyclic peptide differing from RGD by only one carbon atom.
Functionalizing STM probes and substrates: The STM probes were etched from a 0.25 mm Pd wire (California Fine Wires) by an AC electrochemical etching method, and then insulated with high-density polyethylene, leaving an open apex of a few tens of nanometers in diameter. Before use, the probes were tested in 1 mM phosphate buffer (pH=7.4) at 0.5 V bias to ensure that the leakage current was <1 pA. For functionalization, the probe was gently cleaned using ethanol and water, respectively, and then dried with nitrogen flow. The probe was immersed in a 0.5 mg/mL peptide solution for ˜20 h. After that, the probe was taken out, rinsed with water, dried with nitrogen gas, and used immediately. Palladium substrates were prepared by depositing a 100 nm palladium film onto a 10 nm titanium adhesion layer coated onto a 750 μm thick silicon wafer using an electron-beam evaporator (Lesker PVD 75). The substrate was annealed with a hydrogen flame immediately before being functionalized by the same method as that for probe. Fourier transform infrared (FTIR) spectroscopy was used to characterize the functionalization. Pd substrates were also treated by UV- Ozone cleaner and H2 gas reduction (to remove PdO).
Preparation of RGD and RGE: RGD peptide, cyclo(Arg-Gly-Asp-D-Phe-Cys), was obtained from Peptides International (Louisville, Ky.). RGE peptide, cyclo(Arg-Gly-Glu-D-Phe-Cys), was synthesized by CPC Scientific (Sunnyvale, Calif.) with a purity>95%. For chip and STM tip functionalization, peptides were dissolved to a final concentration of 0.5 mg/mL in a freshly degassed 1 mM phosphate buffer (pH=7.4), which was prepared using water from a Milli-Q system with a resistance of ˜18 MΩ and a total organic carbon contamination below 4 ppb.
STM Measurements: Break junction measurements were carried out with a PicoSPM scanning probe microscope (Agilent Technologies). The Teflon liquid cells were cleaned in Piranha solution and then sonicated in Milli-Q water three times (Note that: the Piranha is highly corrosive and must be handled with extreme care). The current set point was 4 pA. Different sample bias was applied to the substrate as required. For better surface charge control, an Ag/AgCl with a salt bridge (10 mM KCl) was connected to the substrate. The tip was approached to the substrate with an integral and proportional gain of 1.0 and then left to stabilize for 0.5 h. For break junction measurements, the tip was first brought into the set point position. After 5 s of waiting, the tip was retracted 10 nm from the substrate with a speed of 0.17 nm/s, during which a current-distance trace was recorded. Subsequently, the tip was re-engaged and the retraction process repeated. About one hundred traces were collected for each experiment and at least three independent experiments were conducted for each sample (using a different substrate and tip each time).

αVβ3 integrin = αVβ3 integrin (Homo sapiens, UniProt P05106+P06756); assay: Capture of αVβ3 integrin by cyclic RGD peptide in junction device
Source text: In experiments, the concentration used to obtain signals with the single molecule capture device had to be quite high (i.e., nanomolar or higher) in order for the probability of capturing a single molecule in a reasonable time to be significant. In some embodiments, this probability is proportional to the volume from which molecules can be captured in a reasonable time. For example, if the molecules diffuse freely with a diffusion constant D (e.g., about 10^−11 m^2/s), then the volume from which molecules can be collected in a time t, over a linear junction length L, is given approximately by πr^2L where r^2=Dt. Taking t=60 s and L=36 nm (approximately the length of the junction around the edge of a 12 nm diameter pore), about 40 molecules would be present at 1 nM concentration in the resulting volume of 6.5×10^−17 m^3 (=6.5×10^−14 liters). […] Thus, for a device with X=10 μm, the capture volume in 1 minute capture time becomes 10^−14 m^3 or almost 100× greater. In fact, upon the solution being flowed over the device, the effective capture length is orders of magnitude greater. […] Thus, if about a linear cm of fluid is flowed past a junction slowly enough that each volume of length equal to the junction length spends about a minute over the junction, then concentrations as small as a femtomole will yield a signal.

T1 sequence (P13612 34-977 limits assumed): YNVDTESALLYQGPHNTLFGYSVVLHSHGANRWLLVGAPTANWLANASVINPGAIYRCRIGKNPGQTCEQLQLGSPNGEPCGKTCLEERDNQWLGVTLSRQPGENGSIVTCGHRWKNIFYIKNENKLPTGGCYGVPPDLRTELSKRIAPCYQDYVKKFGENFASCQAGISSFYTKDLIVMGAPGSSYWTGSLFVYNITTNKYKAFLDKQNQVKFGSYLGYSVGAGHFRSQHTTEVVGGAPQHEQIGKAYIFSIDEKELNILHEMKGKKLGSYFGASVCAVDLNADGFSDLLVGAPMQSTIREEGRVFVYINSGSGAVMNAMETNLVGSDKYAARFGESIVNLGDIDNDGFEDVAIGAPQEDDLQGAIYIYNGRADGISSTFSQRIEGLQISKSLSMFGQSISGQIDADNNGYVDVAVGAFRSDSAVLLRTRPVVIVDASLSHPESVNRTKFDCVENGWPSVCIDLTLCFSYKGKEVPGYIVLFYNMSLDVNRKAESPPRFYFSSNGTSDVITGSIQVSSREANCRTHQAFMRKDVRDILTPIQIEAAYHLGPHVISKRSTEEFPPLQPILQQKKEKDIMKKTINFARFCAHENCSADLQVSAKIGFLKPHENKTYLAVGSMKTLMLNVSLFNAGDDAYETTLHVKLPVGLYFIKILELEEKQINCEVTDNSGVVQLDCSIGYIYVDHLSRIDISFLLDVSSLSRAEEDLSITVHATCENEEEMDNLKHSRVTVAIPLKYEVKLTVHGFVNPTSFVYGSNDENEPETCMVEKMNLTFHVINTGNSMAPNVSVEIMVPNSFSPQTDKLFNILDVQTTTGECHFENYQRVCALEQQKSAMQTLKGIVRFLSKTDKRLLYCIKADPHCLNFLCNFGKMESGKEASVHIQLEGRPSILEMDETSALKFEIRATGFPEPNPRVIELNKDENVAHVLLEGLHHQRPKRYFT
T1 sequence (P05556 21-728 limits assumed): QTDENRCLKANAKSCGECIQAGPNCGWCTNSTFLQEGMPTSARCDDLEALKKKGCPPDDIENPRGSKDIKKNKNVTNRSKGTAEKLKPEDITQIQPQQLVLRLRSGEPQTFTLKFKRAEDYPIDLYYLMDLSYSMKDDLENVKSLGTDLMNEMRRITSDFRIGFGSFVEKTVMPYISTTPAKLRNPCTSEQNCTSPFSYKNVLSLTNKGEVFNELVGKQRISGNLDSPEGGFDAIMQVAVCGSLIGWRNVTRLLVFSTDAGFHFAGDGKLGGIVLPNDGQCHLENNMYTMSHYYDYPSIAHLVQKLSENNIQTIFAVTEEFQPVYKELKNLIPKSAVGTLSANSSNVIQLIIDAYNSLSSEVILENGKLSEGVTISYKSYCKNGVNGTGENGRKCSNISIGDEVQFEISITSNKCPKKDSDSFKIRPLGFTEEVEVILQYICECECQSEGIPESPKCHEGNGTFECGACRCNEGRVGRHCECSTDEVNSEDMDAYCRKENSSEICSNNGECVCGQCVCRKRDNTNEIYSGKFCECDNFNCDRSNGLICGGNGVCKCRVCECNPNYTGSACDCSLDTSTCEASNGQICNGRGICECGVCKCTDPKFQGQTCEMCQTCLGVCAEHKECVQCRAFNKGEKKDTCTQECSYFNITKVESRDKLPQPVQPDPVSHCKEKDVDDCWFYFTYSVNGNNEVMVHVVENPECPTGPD
T2 sequence (P06756 31-992 limits assumed): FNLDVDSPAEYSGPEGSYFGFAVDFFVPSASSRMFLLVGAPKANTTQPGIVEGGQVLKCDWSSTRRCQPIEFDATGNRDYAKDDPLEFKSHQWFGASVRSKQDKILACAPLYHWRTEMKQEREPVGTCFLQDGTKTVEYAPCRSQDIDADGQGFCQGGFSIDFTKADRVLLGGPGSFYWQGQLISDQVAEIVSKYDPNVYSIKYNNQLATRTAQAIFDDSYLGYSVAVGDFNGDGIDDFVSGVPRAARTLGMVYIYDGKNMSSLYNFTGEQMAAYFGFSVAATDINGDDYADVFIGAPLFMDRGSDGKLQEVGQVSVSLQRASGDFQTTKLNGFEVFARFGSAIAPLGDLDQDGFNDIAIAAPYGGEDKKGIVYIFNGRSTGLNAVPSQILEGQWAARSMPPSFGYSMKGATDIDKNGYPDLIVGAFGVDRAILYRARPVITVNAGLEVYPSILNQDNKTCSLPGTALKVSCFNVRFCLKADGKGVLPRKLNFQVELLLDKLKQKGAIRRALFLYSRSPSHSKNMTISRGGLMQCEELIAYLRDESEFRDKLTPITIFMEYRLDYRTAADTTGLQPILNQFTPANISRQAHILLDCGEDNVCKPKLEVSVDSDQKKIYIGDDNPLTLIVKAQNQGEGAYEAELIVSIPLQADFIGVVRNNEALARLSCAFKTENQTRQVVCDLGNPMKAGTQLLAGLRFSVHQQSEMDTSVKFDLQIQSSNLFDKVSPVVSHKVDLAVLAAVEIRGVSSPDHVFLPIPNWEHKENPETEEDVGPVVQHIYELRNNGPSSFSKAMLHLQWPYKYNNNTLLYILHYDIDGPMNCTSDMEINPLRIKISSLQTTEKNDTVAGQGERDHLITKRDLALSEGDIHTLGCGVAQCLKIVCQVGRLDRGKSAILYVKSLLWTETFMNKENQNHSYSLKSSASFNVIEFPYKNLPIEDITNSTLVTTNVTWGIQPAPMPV
T2 sequence (P05106 27-718 limits assumed): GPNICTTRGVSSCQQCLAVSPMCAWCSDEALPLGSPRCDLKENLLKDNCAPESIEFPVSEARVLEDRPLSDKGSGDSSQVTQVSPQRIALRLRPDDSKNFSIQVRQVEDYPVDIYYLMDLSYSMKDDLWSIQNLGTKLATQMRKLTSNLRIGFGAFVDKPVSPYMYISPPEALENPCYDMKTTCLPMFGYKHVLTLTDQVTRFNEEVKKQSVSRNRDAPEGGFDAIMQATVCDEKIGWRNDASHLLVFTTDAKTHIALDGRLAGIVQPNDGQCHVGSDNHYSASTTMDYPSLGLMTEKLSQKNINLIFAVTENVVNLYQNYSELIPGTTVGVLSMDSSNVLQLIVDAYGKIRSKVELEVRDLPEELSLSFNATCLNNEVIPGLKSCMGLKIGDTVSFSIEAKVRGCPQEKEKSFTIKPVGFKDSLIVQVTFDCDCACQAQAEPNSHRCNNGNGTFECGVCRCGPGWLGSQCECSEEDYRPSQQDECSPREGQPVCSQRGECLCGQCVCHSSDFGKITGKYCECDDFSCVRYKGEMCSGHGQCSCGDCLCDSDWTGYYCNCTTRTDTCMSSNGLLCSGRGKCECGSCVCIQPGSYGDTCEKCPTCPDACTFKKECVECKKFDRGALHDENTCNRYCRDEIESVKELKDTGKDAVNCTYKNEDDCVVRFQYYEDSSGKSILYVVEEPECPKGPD
αVβ3 integrin, sequence (P06756 31-992 limits assumed): as the sequence (P06756 31-992 limits assumed) above
αVβ3 integrin, sequence (P05106 27-718 limits assumed): as the sequence (P05106 27-718 limits assumed) above

cyclo(RGE[dF]C) [RGE]
frequency of large current events, α4β1 (α4β1; Modification Tip + Substrate): 0.25 | frequency of large current events, α4β1 (α4β1; Modification Tip only): 0.28 | Ratio (selectivity αvβ3 vs α4β1) (αvβ3; Modification Tip + Substrate): 1.2 | frequency of large current events, αvβ3 (αvβ3; Modification Tip + Substrate): 0.31 | Ratio (selectivity αvβ3 vs α4β1) (αvβ3; Modification Tip only): 1.3 | frequency of large current events, αvβ3 (αvβ3; Modification Tip only): 0.36

cyclo(RGD[dF]C) [RGD]
frequency of large current events, α4β1 (α4β1; Modification Tip + Substrate): 0.19 | frequency of large current events, α4β1 (α4β1; Modification Tip only): 0.21 | Ratio (selectivity αvβ3 vs α4β1) (αvβ3; Modification Tip + Substrate): 3.1 | frequency of large current events, αvβ3 (αvβ3; Modification Tip + Substrate): 0.57 | Ratio (selectivity αvβ3 vs α4β1) (αvβ3; Modification Tip only): 2.6 | frequency of large current events, αvβ3 (αvβ3; Modification Tip only): 0.55 | binding process (αVβ3 integrin): almost irreversible

Source: patent publication US10422787B2, “System and method for single molecule detection” (ARIZONA BOARD OF REGENTS on behalf of ARIZONA STATE …, priority 2015, dated 2019)
